Results reported in US20110152314A1, “USE OF TENATOPRAZOLE FOR THE TREATMENT OF GASTROESOPHAGEAL REFLUX DISEASE” (SIDEM PHARMA, priority 2002, published 2011).
Where two headings read alike, the source gives them in different places.

Key:
Format in all cases: in vivo, human
[1] = tested on: patients with gastroesophageal reflux symptoms; assay: Clinical treatment of patients with gastroesophageal reflux symptoms; conditions: 20 mg tablet daily;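 on Evolution of symptom: one to three plus signs grade improvement from moderate to highly favorable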
Method: (§1) Some clinical examples are given below, which show the effects of treatment on patients suffering from gastroesophageal reflux or dyspepsia, treated by the oral administration of tenatoprazole.
Treatment consisted in the daily administration of a tablet containing 20 mg tenatoprazole.

[2] = tested on: patients suffering from erosive and/or ulcerative type reflux esophagitis; assay: Open-labeled studies in reflux esophagitis: endoscopic improvement rating
Method: Two open-labeled studies have been conducted in order to evaluate the efficacy and safety of tenatoprazole for gastroesophageal reflux disease. 22 patients in the first study and 24 patients in the second study, of more than 20 years of age, suffering from erosive and/or ulcerative type reflux esophagitis (diagnosed by endoscopy), received tablets containing enteric-coated granules with 10 mg of tenatoprazole.
The tablets were administered orally once a day after breakfast, for a treatment period of 8 weeks, which was continued up to 12 weeks in some cases. Healing was controlled by endoscopic examination 4 weeks and 8 weeks after the first administration, or at the withdrawal from the study, the disease stages were evaluated according to the Savary and Miller classification and the treatment was stopped when healing was confirmed. The condition was evaluated as healed when disappearance of erosion was confirmed.

[3] = tested on: patients with symptoms of functional dyspepsia; assay: Clinical treatment of patients with symptoms of functional dyspepsia; set-up: Safety: key: +: moderate; ++: ranging from moderate to highly favorable; +++: highly favorable; conditions: oral
Excerpt: as §1

[4] = Phase I study, pharmacokinetic parameters after oral single dose and daily dose for 7 days; conditions: for AUC(0-t) / Cmax at 7 days / Tmax at 7 days / half-life at 7 days / Cmax / Tmax / half-life: human, oral; for AUC(0-t): po, read-out: AUC 0-t area under the curve, between time 0 and the last measurable concentration; for Cmax at 7 days / Cmax: read-out: Cmax maximum concentration; for Tmax at 7 days / Tmax: read-out: Tmax time required to attain maximum concentration
Method: The doses tested were 10, 20, 40 and 80 mg of tenatoprazole.
In this table, the abbreviations employed have the following meaning:
Cmax maximum concentration
Tmax time required to attain maximum concentration
T1/2 elimination half-life
AUC0-t area under the curve, between time 0 and the last measurable concentration.
The AUC0-inf value was calculated by extrapolation.

[5] = patient 30, nocturnal heartburn, 8 weeks
[6] = 1st study, 4 weeks, 10 mg tablet orally once a day
[7] = 1st study, 8 weeks, 10 mg tablet orally once a day
[8] = 1st study, final, 10 mg tablet orally once a day
[9] = 2nd study, 4 weeks, 10 mg tablet orally once a day
[10] = 2nd study, 8 weeks, 10 mg tablet orally once a day
[11] = 2nd study, 12 weeks, 10 mg tablet orally once a day
[12] = 2nd study, final, 10 mg tablet orally once a day
[13] = patient 25, epigastric discomfort, 12 weeks
[14] = patient 28, distension, 4 weeks
[15] = patient 34, early satiety, 8 weeks
[16] = patient 36, epigastric discomfort, 8 weeks
[17] = patient 38, epigastric pain, 8 weeks
[18] = patient 38, sensation of gastric fullness, 8 weeks
[19] = patient 39, epigastric pain, 4 weeks
[20] = patient 42, early satiety, 6 weeks
[21] = patient 45, epigastric pain, 6 weeks
[22] = in vivo, repeated dose (7 days) 10 mg daily
[23] = in vivo, repeated dose (7 days) 20 mg daily
[24] = in vivo, repeated dose (7 days) 40 mg daily
[25] = in vivo, repeated dose (7 days) 80 mg daily

COc1ccc2[nH]c([S+]([O-])Cc3ncc(C)c(OC)c3C)nc2n1 (centres unmarked) [tenatoprazole, 5-methoxy-2-[[(4-methoxy-3,5-dimethyl-2-pyridyl)methyl]sulfinyl]imidazo[4,5-b]pyridine]
cases in which treatment was perfectly tolerated ([1]; patients of Table 2): 12 out of 14 | evolution observed in symptoms, overall ([1]; patients of Table 2): generally very favorable | Evolution of symptom ([1]; patient 25, heartburn, 12 weeks): +++ | Evolution of symptom ([1]; patient 28, nocturnal heartburn, 4 weeks): +++ | Evolution of symptom [1, 5]: +++ | Evolution of symptom ([1]; patient 34, heartburn, 8 weeks): +++ | Evolution of symptom ([1]; patient 35, nocturnal heartburn, 4 weeks): ++ | Evolution of symptom ([1]; patient 36, regurgitation, 8 weeks): +++ | Evolution of symptom ([1]; patient 38, heartburn, 8 weeks): +++ | Evolution of symptom ([1]; patient 38, nocturnal heartburn, 8 weeks): +++ | Evolution of symptom ([1]; patient 39, nocturnal heartburn, 4 weeks): + | Evolution of symptom ([1]; patient 41, heartburn, 8 weeks): +++ | Evolution of symptom ([1]; patient 42, heartburn, 8 weeks): ++ | Evolution of symptom ([1]; patient 45, nocturnal heartburn, 8 weeks): +++ | Evolution of symptom ([1]; patient 47, nocturnal heartburn, 8 weeks): ++ | Evolution of symptom ([1]; patient 49, regurgitation, 8 weeks): ++ | Endoscopic improvement rating, patients rated A healed [2, 6]: 20 | Endoscopic improvement rating, patients rated B markedly decreased [2, 6]: 1 | Endoscopic improvement rating, patients rated C moderately decreased [2, 6]: 0 | Endoscopic improvement rating, patients rated D slightly decreased [2, 6]: 0 | Endoscopic improvement rating, patients rated E not changed [2, 6]: 1 | Endoscopic improvement rating, patients rated F aggravated [2, 6]: 0 | Endoscopic improvement rating, patients rated A healed [2, 7]: 21 | Endoscopic improvement rating, patients rated B markedly decreased [2, 7]: 0 | Endoscopic improvement rating, patients rated C moderately decreased [2, 7]: 0 | Endoscopic improvement rating, patients rated D slightly decreased [2, 7]: 0 | Endoscopic improvement rating, patients rated E not changed [2, 7]: 1 | Endoscopic improvement rating, patients rated F aggravated [2, 7]: 0 | Endoscopic improvement rating, patients rated A healed [2, 8]: 21 | Endoscopic improvement rating, patients rated B markedly decreased [2, 8]: 0 | Endoscopic improvement rating, patients rated C moderately decreased [2, 8]: 0 | Endoscopic improvement rating, patients rated D slightly decreased [2, 8]: 0 | Endoscopic improvement rating, patients rated E not changed [2, 8]: 1 | Endoscopic improvement rating, patients rated F aggravated [2, 8]: 0 | Endoscopic improvement rating, patients rated A healed [2, 9]: 23 | Endoscopic improvement rating, patients rated B markedly decreased [2, 9]: 2 | Endoscopic improvement rating, patients rated C moderately decreased [2, 9]: 0 | Endoscopic improvement rating, patients rated D slightly decreased [2, 9]: 0 | Endoscopic improvement rating, patients rated E not changed [2, 9]: 0 | Endoscopic improvement rating, patients rated F aggravated [2, 9]: 0 | Endoscopic improvement rating, patients rated A healed [2, 10]: 24 | Endoscopic improvement rating, patients rated B markedly decreased [2, 10]: 0 | Endoscopic improvement rating, patients rated C moderately decreased [2, 10]: 0 | Endoscopic improvement rating, patients rated D slightly decreased [2, 10]: 0 | Endoscopic improvement rating, patients rated E not changed [2, 10]: 0 | Endoscopic improvement rating, patients rated F aggravated [2, 10]: 0 | Endoscopic improvement rating, patients rated A healed [2, 11]: 24 | Endoscopic improvement rating, patients rated B markedly decreased [2, 11]: 0 | Endoscopic improvement rating, patients rated C moderately decreased [2, 11]: 0 | Endoscopic improvement rating, patients rated D slightly decreased [2, 11]: 0 | Endoscopic improvement rating, patients rated E not changed [2, 11]: 0 | Endoscopic improvement rating, patients rated F aggravated [2, 11]: 0 | Endoscopic improvement rating, patients rated A healed [2, 12]: 24 | Endoscopic improvement rating, patients rated B markedly decreased [2, 12]: 0 | Endoscopic improvement rating, patients rated C moderately decreased [2, 12]: 0 | Endoscopic improvement rating, patients rated D slightly decreased [2, 12]: 0 | Endoscopic improvement rating, patients rated E not changed [2, 12]: 0 | Endoscopic improvement rating, patients rated F aggravated [2, 12]: 0 | patients not healed after 8 weeks treatment ([2]; both studies, 10 mg tablet orally once a day): Only one patient was not healed | efficacy in the treatment of gastroesophageal reflux disease, overall ([2]; both studies, healing obtained with a 4 week treatment): very effective | Evolution of symptom [3, 13]: ++ | Safety [3, 13]: +++ | Evolution of symptom [3, 14]: + | Safety [3, 14]: +++ | Evolution of symptom [3, 5]: +++ | Safety [3, 5]: +++ | Evolution of symptom [3, 15]: +++ | Safety [3, 15]: +++ | Evolution of symptom ([3]; patient 35, heartburn, 8 weeks): +++ | Safety ([3]; patient 35, heartburn, 8 weeks): +++ | Evolution of symptom [3, 16]: +++ | Safety [3, 16]: ++ | Evolution of symptom [3, 17]: +++ | Safety [3, 17]: ++ | Evolution of symptom [3, 18]: +++ | Safety [3, 18]: +++ | Evolution of symptom [3, 19]: ++ | Safety [3, 19]: ++ | Evolution of symptom ([3]; patient 41, heartburn, 6 weeks): +++ | Safety ([3]; patient 41, heartburn, 6 weeks): +++ | Evolution of symptom [3, 20]: ++ | Safety [3, 20]: +++ | Evolution of symptom ([3]; patient 44, nausea, 10 weeks): +++ | Safety ([3]; patient 44, nausea, 10 weeks): +++ | Evolution of symptom [3, 21]: +++ | Safety [3, 21]: ++ | Evolution of symptom ([3]; patient 47, nausea, 4 weeks): ++ | Safety ([3]; patient 47, nausea, 4 weeks): +++ | Evolution of symptom ([3]; patient 49, nausea, 8 weeks): ++ | Safety ([3]; patient 49, nausea, 8 weeks): +++ | AUC(0-t) ([4]; in vivo, 10 mg, repeated dose (7 days) 10 mg daily): 13 µg·h/mL | AUC(0-t) ([4]; in vivo, 10 mg, single dose 10 mg): 8 µg·h/mL | AUC(0-t) ([4]; in vivo, 20 mg, repeated dose (7 days) 20 mg daily): 36 µg·h/mL | AUC(0-t) ([4]; in vivo, 20 mg, single dose 20 mg): 24 µg·h/mL | AUC(0-t) ([4]; in vivo, 40 mg, repeated dose (7 days) 40 mg daily): 75 µg·h/mL | AUC(0-t) ([4]; in vivo, 40 mg, single dose 40 mg): 43 µg·h/mL | AUC(0-t) ([4]; in vivo, 80 mg, repeated dose (7 days) 80 mg daily): 218 µg·h/mL | AUC(0-t) ([4]; in vivo, 80 mg, single dose 80 mg): 97 µg·h/mL | Cmax at 7 days [4, 22]: 1.6 µg/mL | Tmax at 7 days [4, 22]: 3 h | half-life at 7 days ([4]; in vivo, repeated dose (7 days) 10 mg daily, read-out: T½ elimination half-life (converted)): 5 h | Cmax at 7 days [4, 23]: 3 µg/mL | Tmax at 7 days [4, 23]: 2 h | half-life at 7 days ([4]; in vivo, repeated dose (7 days) 20 mg daily, read-out: T½ elimination half-life (converted)): 8 h | Cmax at 7 days [4, 24]: 5.5 µg/mL | Tmax at 7 days [4, 24]: 3 h | half-life at 7 days ([4]; in vivo, repeated dose (7 days) 40 mg daily, read-out: T½ elimination half-life (converted)): 9 h | Cmax at 7 days [4, 25]: 11.8 µg/mL | Tmax at 7 days [4, 25]: 2 h | half-life at 7 days ([4]; in vivo, repeated dose (7 days) 80 mg daily, read-out: T½ elimination half-life (converted)): 9.2 h | Cmax ([4]; in vivo, single dose 10 mg): 0.9 µg/mL | Tmax ([4]; in vivo, single dose 10 mg): 4 h | half-life ([4]; in vivo, single dose 10 mg, read-out: T½ elimination half-life (converted)): 5 h | Cmax ([4]; in vivo, single dose 20 mg): 2.4 µg/mL | Tmax ([4]; in vivo, single dose 20 mg): 4 h | Cmax ([4]; in vivo, single dose 40 mg): 5.3 µg/mL | Tmax ([4]; in vivo, single dose 40 mg): 3 h | half-life ([4]; in vivo, single dose 40 mg, read-out: T½ elimination half-life (converted)): 6 h | Cmax ([4]; in vivo, single dose 80 mg): 8.3 µg/mL | Tmax ([4]; in vivo, single dose 80 mg): 3 h | half-life ([4]; in vivo, single dose 80 mg, read-out: T½ elimination half-life (converted)): 7 h | half-life ([4]; plasma, after a single dose, depending on the dose (10-80 mg), read-out: mean elimination half-lives): 5 to 6 h | half-life at 7 days ([4]; plasma, after administration for seven days, depending on the dose (10-80 mg), read-out: mean elimination half-lives): 5 to 9.5 h | half-life compared with other proton pump inhibitors (omeprazole, esomeprazole) ([4]; in vivo): some seven times longer | dose dependence of Cmax, AUC0-t and AUC0-inf ([4]; single or repeated administration, 10-80 mg): increased in a linear fashion
